From ChEMBL document CHEMBL1201862, “PubChem BioAssay data set” (2004)
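Assay format: 96-well plates, 48-hour exposure. GI50 marks 50% less growth.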 Activity calls are given as the source filed them. Cut-off read from the data, not from the text of the source: active = GI50 up to about 1.1 µM and inactive = higher.

What was measured:
Experiment in all cases: NCI tumour cell line growth inhibition, 48 h
Hs-578T = test system: Hs-578T
SK-MEL-5 = test system: SK-MEL-5
IGROV-1 = test system: IGROV-1
HOP-62 = test system: HOP-62
MDA-MB-231 = test system: MDA-MB-231
COLO 205 = test system: COLO 205
UACC-257 = test system: UACC-257
SNB-75 = test system: SNB-75
SW-620 = test system: SW-620
RXF 393 = test system: RXF 393
UACC-62 = test system: UACC-62
HT-29 = test system: HT-29
OVCAR-5 = test system: OVCAR-5
HCT-116 = test system: HCT-116
A549 = test system: A549
NCI-H23 = test system: NCI-H23
A498 = test system: A498
OVCAR-4 = test system: OVCAR-4
HOP-92 = test system: HOP-92
TK-10 = test system: TK-10
CCRF-CEM = test system: CCRF-CEM
MDA-N = test system: MDA-N
SK-MEL-28 = test system: SK-MEL-28
MOLT-4 = test system: MOLT-4
SR = test system: SR
NCI-H522 = test system: NCI-H522
ACHN = test system: ACHN
SF-268 = test system: SF-268
SK-OV-3 = test system: SK-OV-3
SF-295 = test system: SF-295
NCI-H460 = test system: NCI-H460
HL-60 = test system: HL-60
T47D = test system: T47D
PC-3 = test system: PC-3
MCF7 = test system: MCF7
OVCAR-8 = test system: OVCAR-8
NCI/ADR-RES = test system: NCI/ADR-RES
U-251 = test system: U-251
SN12C = test system: SN12C
SF-539 = test system: SF-539
LOX IMVI = test system: LOX IMVI
Malme-3M = test system: Malme-3M
786-0 = test system: 786-0
HCT-15 = test system: HCT-15
HCC 2998 = test system: HCC 2998
BT-549 = test system: BT-549
NCI-H226 = test system: NCI-H226
UO-31 = test system: UO-31
OVCAR-3 = test system: OVCAR-3
M14 = test system: M14
KM12 = test system: KM12
RPMI-8226 = test system: RPMI-8226
SK-MEL-2 = test system: SK-MEL-2
EKVX = test system: EKVX
SNB-19 = test system: SNB-19
CAKI-1 = test system: CAKI-1
K562 = test system: K562
DU-145 = test system: DU-145
MDA-MB-435 = test system: MDA-MB-435

Measured: GI50

CC(C)N(CC(=O)O)CC(=O)O
> 100 µM: HCT-15
inactive: Hs-578T > 100 µM | SK-MEL-5 > 100 µM | IGROV-1 > 100 µM | HOP-62 > 100 µM | MDA-MB-231 > 100 µM | COLO 205 > 100 µM | UACC-257 > 100 µM | SNB-75 > 100 µM | SW-620 > 100 µM | RXF 393 > 100 µM | UACC-62 > 100 µM | HT-29 > 100 µM | OVCAR-5 > 100 µM | HCT-116 > 100 µM | A549 > 100 µM | NCI-H23 > 100 µM | A498 > 100 µM | OVCAR-4 > 100 µM | HOP-92 > 100 µM | TK-10 > 100 µM | CCRF-CEM > 100 µM | MDA-N > 100 µM | SK-MEL-28 > 100 µM | MOLT-4 > 100 µM | SR > 100 µM | NCI-H522 > 100 µM | ACHN > 100 µM | SF-268 > 100 µM | SK-OV-3 > 100 µM | SF-295 > 100 µM | NCI-H460 > 100 µM | HL-60 > 100 µM | T47D > 100 µM | PC-3 > 100 µM | MCF7 > 100 µM | OVCAR-8 > 100 µM | NCI/ADR-RES > 100 µM | U-251 > 100 µM | SN12C > 100 µM | SF-539 > 100 µM | LOX IMVI > 100 µM | Malme-3M > 100 µM | 786-0 > 100 µM | HCC 2998 > 100 µM | BT-549 > 100 µM | NCI-H226 > 100 µM | UO-31 > 100 µM | OVCAR-3 > 100 µM | M14 > 100 µM | KM12 > 100 µM | RPMI-8226 > 100 µM | SK-MEL-2 > 100 µM | EKVX > 100 µM | SNB-19 > 100 µM | CAKI-1 > 100 µM | K562 > 100 µM | DU-145 > 100 µM | MDA-MB-435 > 100 µM

COc1ccc(C(O)/C(=N/N)c2nc3ccc(Cl)cc3nc2O)cc1 (configuration not stated)
inactive: Hs-578T > 100 µM | SK-MEL-5 > 100 µM | IGROV-1 > 100 µM | HOP-62 > 100 µM | MDA-MB-231 > 100 µM | COLO 205 > 100 µM | UACC-257 > 100 µM | SNB-75 > 100 µM | SW-620 > 100 µM | RXF 393 > 100 µM | UACC-62 > 100 µM | HT-29 > 100 µM | OVCAR-5 > 100 µM | HCT-116 > 100 µM | A549 > 100 µM | NCI-H23 > 100 µM | A498 > 100 µM | OVCAR-4 > 100 µM | HOP-92 63.4 µM | TK-10 > 100 µM | CCRF-CEM > 100 µM | MDA-N > 100 µM | SK-MEL-28 > 100 µM | MOLT-4 > 100 µM | SR > 100 µM | NCI-H522 > 100 µM | ACHN > 100 µM | SF-268 > 100 µM | SK-OV-3 > 100 µM | SF-295 > 100 µM | NCI-H460 > 100 µM | HL-60 > 100 µM | T47D 99.8 µM | PC-3 > 100 µM | MCF7 62.7 µM | OVCAR-8 > 100 µM | NCI/ADR-RES > 100 µM | U-251 > 100 µM | SN12C > 100 µM | SF-539 > 100 µM | LOX IMVI > 100 µM | Malme-3M > 100 µM | 786-0 > 100 µM | HCC 2998 > 100 µM | BT-549 > 100 µM | NCI-H226 > 100 µM | UO-31 > 100 µM | OVCAR-3 > 100 µM | M14 > 100 µM | KM12 > 100 µM | RPMI-8226 97.7 µM | SK-MEL-2 > 100 µM | EKVX > 100 µM | SNB-19 > 100 µM | CAKI-1 > 100 µM | K562 > 100 µM | DU-145 > 100 µM | MDA-MB-435 > 100 µM
> 100 µM: HCT-15

O=C1N/C(=N\N=C\c2ccccc2)C2(CCCCC2)O1
inactive: Hs-578T 46.8 µM | SK-MEL-5 55.8 µM | IGROV-1 > 100 µM | HOP-62 83.4 µM | MDA-MB-231 > 100 µM | COLO 205 93.1 µM | UACC-257 > 100 µM | SNB-75 20.5 µM | SW-620 > 100 µM | RXF 393 > 100 µM | UACC-62 > 100 µM | HT-29 78 µM | OVCAR-5 > 100 µM | HCT-116 59.2 µM | A549 54.5 µM | NCI-H23 > 100 µM | A498 > 100 µM | OVCAR-4 > 100 µM | HOP-92 > 100 µM | TK-10 74.6 µM | CCRF-CEM 17.8 µM | MDA-N > 100 µM | SK-MEL-28 > 100 µM | MOLT-4 39.3 µM | SR 16.3 µM | NCI-H522 > 100 µM | ACHN > 100 µM | SF-268 > 100 µM | SK-OV-3 > 100 µM | SF-295 55.1 µM | NCI-H460 45 µM | HL-60 32.9 µM | T47D > 100 µM | PC-3 80.4 µM | MCF7 > 100 µM | OVCAR-8 99.5 µM | NCI/ADR-RES 42.5 µM | U-251 77.8 µM | SN12C 95.3 µM | SF-539 > 100 µM | LOX IMVI 56.5 µM | Malme-3M > 100 µM | 786-0 64.9 µM | HCC 2998 87.3 µM | BT-549 > 100 µM | NCI-H226 44.5 µM | UO-31 43.1 µM | OVCAR-3 44.9 µM | M14 > 100 µM | KM12 > 100 µM | RPMI-8226 53.5 µM | SK-MEL-2 > 100 µM | EKVX > 100 µM | SNB-19 > 100 µM | CAKI-1 84.9 µM | K562 35 µM | DU-145 > 100 µM | MDA-MB-435 > 100 µM
46.9 µM: HCT-15
